Source: ChEMBL document CHEMBL1201862, “PubChem BioAssay data set” (2004)
Active and inactive are the calls of the source.

How the values were obtained:
[1] = target: T1, Sentrin-specific protease 8 (Homo sapiens, UniProt Q96LD8); assay type: functional
T1 sequence (Q96LD8 whole entry): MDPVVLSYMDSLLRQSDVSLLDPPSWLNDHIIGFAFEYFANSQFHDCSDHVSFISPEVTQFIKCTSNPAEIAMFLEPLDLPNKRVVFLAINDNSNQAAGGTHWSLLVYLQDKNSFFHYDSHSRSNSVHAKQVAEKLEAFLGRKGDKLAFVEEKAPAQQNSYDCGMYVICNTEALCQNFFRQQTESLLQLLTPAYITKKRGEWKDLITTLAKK

Protein RecA = target: T2, Protein RecA (Mycobacterium tuberculosis, UniProt P9WHJ3); test: Fluorescence Cell-Free Homogeneous Dose Retest to Identify Inhibitors of RecA-Intein Splicing Activity. [Related pubchem assays (depositor defined):AID2097, AID2223, AID489010, AID492950]; assay type: functional
T2 sequence (P9WHJ3 whole entry): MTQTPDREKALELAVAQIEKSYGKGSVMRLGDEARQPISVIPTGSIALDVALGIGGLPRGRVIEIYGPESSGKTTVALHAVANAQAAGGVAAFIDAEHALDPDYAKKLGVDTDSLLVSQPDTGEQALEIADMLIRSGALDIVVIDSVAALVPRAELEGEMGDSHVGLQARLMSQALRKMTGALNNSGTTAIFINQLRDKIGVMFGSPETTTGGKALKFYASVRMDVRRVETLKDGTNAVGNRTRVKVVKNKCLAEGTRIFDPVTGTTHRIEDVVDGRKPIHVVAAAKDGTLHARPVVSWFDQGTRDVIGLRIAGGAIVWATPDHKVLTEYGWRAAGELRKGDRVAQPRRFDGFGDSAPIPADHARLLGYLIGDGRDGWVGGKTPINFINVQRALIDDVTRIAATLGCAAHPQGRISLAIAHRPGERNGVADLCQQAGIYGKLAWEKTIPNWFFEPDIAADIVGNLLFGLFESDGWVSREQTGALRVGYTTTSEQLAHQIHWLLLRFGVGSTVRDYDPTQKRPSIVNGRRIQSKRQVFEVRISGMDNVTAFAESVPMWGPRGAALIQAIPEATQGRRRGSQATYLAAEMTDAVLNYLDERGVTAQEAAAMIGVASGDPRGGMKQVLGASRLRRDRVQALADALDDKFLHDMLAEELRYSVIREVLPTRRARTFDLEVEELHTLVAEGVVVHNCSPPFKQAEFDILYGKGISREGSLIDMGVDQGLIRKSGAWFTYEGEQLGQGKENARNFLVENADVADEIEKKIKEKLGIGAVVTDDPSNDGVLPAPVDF

[2] = target: T3, Replicative DNA helicase DnaB (Mycobacterium tuberculosis, UniProt P9WMR3); test: DnaB intein splicing inhibitors, dose response, biochemical, cell-free fluorescence (AID 449749); assay type: functional
T3 sequence (P9WMR3 whole entry): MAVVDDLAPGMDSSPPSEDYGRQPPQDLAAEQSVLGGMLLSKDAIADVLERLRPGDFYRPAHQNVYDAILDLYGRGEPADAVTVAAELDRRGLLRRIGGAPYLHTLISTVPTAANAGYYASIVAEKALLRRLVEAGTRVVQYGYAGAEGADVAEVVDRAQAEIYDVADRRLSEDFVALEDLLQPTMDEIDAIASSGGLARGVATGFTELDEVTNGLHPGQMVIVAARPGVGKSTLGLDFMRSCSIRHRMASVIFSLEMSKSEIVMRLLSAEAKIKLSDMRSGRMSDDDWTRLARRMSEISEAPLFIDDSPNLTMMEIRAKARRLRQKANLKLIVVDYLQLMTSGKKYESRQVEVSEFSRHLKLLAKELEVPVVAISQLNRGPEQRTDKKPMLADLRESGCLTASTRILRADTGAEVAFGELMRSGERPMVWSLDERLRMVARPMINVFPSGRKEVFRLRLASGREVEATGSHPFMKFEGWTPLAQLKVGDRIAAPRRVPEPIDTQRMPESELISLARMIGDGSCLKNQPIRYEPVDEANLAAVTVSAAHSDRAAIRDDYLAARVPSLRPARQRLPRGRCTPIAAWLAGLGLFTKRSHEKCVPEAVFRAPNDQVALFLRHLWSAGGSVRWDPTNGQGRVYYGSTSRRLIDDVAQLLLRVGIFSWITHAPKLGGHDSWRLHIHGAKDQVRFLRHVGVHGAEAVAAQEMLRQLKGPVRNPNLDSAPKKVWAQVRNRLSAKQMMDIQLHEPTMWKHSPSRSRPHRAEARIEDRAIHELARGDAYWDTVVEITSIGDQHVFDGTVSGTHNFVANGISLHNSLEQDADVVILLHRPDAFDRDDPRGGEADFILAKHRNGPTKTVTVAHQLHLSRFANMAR

A549 = test: viability loss in A549 cells – cell-based, plate reader, cherry-pick samples, cytotoxicity control, dose response (AID 687028); assay type: functional; details: Homo sapiens
Mu-type opioid receptor = Mu-type opioid receptor (Homo sapiens, UniProt P35372); assay type: functional, cell-based;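 further: U2OS cells with beta-arrestin recruitment to OPRM1 by beta-gal complementation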
Mu-type opioid receptor, sequence (P35372 whole entry): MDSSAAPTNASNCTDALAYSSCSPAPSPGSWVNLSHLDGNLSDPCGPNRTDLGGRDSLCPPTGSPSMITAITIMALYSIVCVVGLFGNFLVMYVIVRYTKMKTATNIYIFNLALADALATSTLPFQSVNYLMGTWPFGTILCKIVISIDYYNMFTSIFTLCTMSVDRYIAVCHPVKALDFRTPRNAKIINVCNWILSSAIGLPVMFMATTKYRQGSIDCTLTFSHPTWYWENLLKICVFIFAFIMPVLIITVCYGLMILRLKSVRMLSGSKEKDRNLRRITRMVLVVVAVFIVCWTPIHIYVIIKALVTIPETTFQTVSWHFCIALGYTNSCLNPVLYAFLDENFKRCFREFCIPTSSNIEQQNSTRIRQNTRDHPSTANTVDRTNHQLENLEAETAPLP

[3] = target: 5-hydroxytryptamine receptor 2A (Mus musculus, UniProt P35363); assay type: functional, cell-based;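 further: CHO-K1 cells with tagged receptor and beta-arrestin; agonist potency measured as compound-induced activation of the receptor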
5-hydroxytryptamine receptor 2A, sequence (P35363 whole entry): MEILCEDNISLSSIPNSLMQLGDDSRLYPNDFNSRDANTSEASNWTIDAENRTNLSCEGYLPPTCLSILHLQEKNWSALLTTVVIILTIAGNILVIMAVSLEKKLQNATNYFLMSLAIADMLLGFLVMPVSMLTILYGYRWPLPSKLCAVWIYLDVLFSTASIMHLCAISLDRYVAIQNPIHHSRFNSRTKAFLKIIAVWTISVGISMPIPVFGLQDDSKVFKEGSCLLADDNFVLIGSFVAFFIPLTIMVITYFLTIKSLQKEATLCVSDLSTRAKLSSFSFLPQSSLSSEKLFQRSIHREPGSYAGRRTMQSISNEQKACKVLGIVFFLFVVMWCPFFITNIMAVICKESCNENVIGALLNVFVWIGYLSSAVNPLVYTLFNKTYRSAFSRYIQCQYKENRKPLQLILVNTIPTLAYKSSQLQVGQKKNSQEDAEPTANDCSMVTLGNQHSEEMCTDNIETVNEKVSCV

[4] = target: T4, Corticotropin-releasing factor receptor 2/Corticotropin-releasing factor-binding protein (Homo sapiens, UniProt P24387+Q13324); test: Dose Response confirmation of uHTS hits for small molecule antagonists of the CRF-binding protein and CRF-R2 receptor complex.; assay type: functional; details: read-out: IC50_Mean
T4 sequence (Q13324 whole entry): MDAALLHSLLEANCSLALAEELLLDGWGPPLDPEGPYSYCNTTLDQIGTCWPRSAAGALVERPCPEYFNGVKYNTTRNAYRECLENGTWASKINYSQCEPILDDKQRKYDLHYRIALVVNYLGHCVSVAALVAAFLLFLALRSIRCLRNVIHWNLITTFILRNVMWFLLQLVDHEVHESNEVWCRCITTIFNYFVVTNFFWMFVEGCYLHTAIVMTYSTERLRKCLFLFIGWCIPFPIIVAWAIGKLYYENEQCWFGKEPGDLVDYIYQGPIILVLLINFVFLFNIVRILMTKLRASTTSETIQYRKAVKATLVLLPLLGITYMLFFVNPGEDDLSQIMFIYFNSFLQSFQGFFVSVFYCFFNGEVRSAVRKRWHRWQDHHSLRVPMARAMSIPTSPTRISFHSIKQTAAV
T4 sequence (P24387 whole entry): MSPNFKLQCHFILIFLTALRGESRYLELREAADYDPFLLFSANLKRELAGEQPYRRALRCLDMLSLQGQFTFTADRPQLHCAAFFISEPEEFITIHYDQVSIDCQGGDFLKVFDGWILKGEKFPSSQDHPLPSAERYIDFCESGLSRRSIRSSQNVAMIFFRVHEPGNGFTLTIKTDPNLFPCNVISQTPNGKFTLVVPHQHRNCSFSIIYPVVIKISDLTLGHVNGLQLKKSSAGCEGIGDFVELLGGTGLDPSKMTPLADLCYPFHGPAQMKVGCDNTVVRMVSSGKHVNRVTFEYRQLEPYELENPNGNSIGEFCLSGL

[5] = target: T4, Corticotropin-releasing factor receptor 2/Corticotropin-releasing factor-binding protein; test: activators of CRF receptor 2 with binding protein – uHTS hits, confirmation (AID 602473); assay type: functional; details: read-out: EC50_Mean
Beta-lactamase [6] = target: Beta-lactamase (Salmonella choleraesuis (strain SC-B67), UniProt Q5J463); test: Epi-absorbance-based counterscreen for selective VIM-2 inhibitors: dose response biochemical high throughput screening assay to identify inhibitors of TEM-1 serine-beta-lactamase.
Beta-lactamase (Salmonella choleraesuis (strain SC-B67), UniProt Q5J463), sequence (Q5J463 whole entry): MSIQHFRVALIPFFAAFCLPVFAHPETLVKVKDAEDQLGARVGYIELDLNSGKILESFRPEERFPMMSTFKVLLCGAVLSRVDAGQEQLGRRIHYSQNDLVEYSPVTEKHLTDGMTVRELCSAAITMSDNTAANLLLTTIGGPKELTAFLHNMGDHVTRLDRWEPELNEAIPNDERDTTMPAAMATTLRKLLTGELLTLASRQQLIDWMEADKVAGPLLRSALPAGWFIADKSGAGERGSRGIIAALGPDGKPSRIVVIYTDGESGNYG

Beta-lactamase [7] = target: T5, Beta-lactamase (Pseudomonas aeruginosa, UniProt Q79MP6); test: […] counterscreen for selective VIM-2 inhibitors: dose response biochemical high throughput screening assay to identify inhibitors of IMP-1 metallo-beta-lactamase.
T5 sequence (Q79MP6 whole entry): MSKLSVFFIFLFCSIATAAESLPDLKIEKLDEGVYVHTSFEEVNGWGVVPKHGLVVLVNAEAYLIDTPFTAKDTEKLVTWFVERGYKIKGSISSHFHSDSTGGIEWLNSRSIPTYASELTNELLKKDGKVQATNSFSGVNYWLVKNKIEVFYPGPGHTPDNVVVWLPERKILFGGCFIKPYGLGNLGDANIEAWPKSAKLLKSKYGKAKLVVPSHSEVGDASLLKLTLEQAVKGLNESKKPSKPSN

Beta-lactamase [8] = target: T5, Beta-lactamase; test: inhibition of IMP-1 beta-lactamase activity – biochemical, epi-absorbance, selectivity assay for VIM-2 inhibitor project, dose response (AID 1920)
[9] = blockers of CRF-binding protein–CRF-R2 complex – cell-based, uHTS hits, 384-well, dose response (AID 651639); assay type: functional, Homo sapiens; details: read-out: IC50_Mean
[10] = target: Botulinum neurotoxin type F (Clostridium botulinum, UniProt P30996); test: High-throughput multiplex microsphere dose response for inhibitors of toxin protease, specifically Botulinum neurotoxin light chain F protease, compounds from Cherry Pick 02.; assay type: functional; details: read-out: EC50_MICROM
Botulinum neurotoxin type F, sequence (P30996 1-436 limits assumed): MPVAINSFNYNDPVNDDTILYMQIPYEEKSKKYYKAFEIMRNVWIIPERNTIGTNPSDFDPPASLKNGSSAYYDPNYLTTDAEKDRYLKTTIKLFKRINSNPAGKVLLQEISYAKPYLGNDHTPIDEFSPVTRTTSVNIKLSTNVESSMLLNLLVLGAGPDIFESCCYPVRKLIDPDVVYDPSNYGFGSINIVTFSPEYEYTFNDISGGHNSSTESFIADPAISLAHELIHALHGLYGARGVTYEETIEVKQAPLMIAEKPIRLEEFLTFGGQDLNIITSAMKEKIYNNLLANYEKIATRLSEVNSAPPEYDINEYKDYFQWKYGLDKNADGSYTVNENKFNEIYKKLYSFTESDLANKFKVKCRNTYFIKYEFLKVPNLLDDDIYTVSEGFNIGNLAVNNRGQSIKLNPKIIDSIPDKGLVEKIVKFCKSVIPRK

[11] = target: Low molecular weight phosphotyrosine protein phosphatase (Homo sapiens, UniProt P24666); assay type: functional; details: read-out: IC50_Mean;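 further: Dose-response confirmation assay measuring inhibition of LMPTP enzyme activity by fluorescence intensity read-out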
Low molecular weight phosphotyrosine protein phosphatase, sequence (P24666 whole entry): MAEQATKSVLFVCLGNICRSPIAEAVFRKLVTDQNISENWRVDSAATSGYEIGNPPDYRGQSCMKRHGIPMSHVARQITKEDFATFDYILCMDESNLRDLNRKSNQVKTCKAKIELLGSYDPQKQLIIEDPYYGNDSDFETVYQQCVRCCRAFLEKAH

[12] = target: T6, Tyrosine-protein phosphatase non-receptor type 11 (Homo sapiens, UniProt Q06124); test: PTPN11 enzyme inhibitors – biochemical, selectivity assay for STEP inhibitor project, dose response (AID 602367); assay type: functional; details: read-out: IC50_Mean
T6 sequence (Q06124 whole entry): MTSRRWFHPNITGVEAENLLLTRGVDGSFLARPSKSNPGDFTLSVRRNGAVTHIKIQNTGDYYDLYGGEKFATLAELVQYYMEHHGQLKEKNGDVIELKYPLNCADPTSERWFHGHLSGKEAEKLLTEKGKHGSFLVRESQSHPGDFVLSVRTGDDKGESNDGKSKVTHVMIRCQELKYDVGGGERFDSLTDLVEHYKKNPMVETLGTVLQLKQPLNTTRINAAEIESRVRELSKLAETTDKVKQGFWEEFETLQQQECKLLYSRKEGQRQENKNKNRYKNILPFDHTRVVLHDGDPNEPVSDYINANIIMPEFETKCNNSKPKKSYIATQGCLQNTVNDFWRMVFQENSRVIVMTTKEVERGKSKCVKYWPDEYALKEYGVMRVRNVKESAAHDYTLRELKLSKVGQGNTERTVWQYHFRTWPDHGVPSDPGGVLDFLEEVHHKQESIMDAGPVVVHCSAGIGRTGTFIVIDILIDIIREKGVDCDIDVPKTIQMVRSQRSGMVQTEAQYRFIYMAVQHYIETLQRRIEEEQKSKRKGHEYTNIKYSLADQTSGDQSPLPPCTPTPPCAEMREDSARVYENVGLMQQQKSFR

[13] = target: T7, Tyrosine-protein phosphatase non-receptor type 22 (Homo sapiens, UniProt Q9Y2R2); test: lymphoid phosphatase LYP inhibitors – biochemical, selectivity assay for STEP inhibitor project, dose response (AID 624241); assay type: functional
T7 sequence (Q9Y2R2 whole entry): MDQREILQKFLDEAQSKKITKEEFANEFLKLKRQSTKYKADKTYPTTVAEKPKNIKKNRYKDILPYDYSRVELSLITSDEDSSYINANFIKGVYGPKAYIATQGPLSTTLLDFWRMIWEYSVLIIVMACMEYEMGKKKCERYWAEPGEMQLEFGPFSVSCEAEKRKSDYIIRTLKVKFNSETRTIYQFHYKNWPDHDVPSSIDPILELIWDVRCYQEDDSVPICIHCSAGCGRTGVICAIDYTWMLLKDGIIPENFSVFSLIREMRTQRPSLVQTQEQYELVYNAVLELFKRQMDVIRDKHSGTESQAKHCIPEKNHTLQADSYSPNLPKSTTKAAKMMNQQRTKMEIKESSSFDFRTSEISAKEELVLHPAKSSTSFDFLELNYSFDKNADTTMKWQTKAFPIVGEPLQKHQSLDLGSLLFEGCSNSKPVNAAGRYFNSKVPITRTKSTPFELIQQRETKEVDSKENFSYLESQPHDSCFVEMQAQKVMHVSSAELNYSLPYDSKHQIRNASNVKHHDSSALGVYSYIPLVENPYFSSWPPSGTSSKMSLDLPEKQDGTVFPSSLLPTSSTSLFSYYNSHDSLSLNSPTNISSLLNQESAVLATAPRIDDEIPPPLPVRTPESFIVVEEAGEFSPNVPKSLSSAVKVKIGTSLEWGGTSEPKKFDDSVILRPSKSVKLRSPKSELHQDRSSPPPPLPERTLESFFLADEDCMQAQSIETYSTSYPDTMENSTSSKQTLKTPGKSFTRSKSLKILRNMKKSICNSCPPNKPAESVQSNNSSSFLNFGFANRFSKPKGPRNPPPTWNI

[14] = target: Dual specificity protein phosphatase 3 (Homo sapiens, UniProt P51452); test: VHR phosphatase inhibition, dose response, selectivity assay for STEP inhibitor project, biochemical (AID 602374); assay type: functional; details: read-out: IC50_Mean
Dual specificity protein phosphatase 3, sequence (P51452 whole entry): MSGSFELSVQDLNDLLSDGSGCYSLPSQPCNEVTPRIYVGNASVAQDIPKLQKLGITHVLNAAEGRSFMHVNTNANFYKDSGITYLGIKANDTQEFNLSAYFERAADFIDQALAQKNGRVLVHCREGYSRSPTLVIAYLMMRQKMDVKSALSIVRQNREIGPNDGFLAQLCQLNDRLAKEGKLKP

[15] = target: T8, Tyrosine-protein phosphatase non-receptor type 5 (Homo sapiens, UniProt P54829); test: PTPN5 enzyme inhibition – biochemical, fluorescence intensity, uHTS hits, confirmation (AID 602372); assay type: functional; details: read-out: IC50_Mean
T8 sequence (P54829 whole entry): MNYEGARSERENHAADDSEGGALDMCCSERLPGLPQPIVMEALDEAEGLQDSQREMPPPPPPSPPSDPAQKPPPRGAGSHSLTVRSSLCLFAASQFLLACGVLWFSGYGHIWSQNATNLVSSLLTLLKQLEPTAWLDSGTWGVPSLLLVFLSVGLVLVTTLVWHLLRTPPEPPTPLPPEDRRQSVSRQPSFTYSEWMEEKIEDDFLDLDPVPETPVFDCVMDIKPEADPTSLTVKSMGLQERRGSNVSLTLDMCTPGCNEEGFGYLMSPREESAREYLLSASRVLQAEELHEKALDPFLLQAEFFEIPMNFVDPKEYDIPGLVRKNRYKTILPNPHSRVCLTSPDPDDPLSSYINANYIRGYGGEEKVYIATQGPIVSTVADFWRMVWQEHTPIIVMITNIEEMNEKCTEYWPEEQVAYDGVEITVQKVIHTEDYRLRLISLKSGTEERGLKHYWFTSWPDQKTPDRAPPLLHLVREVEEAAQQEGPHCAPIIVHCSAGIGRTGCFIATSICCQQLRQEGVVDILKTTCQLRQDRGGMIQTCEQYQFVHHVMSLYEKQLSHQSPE

With `COc1ccc(-c2cc(=O)n(CCC#N)[nH]2)cc1` the IC50 [1] was 50.8 µM (active), the EC50 (Protein RecA) was 1.02 µM (active) and the AC50 [2] was 2.05 µM (active).
In the case of `C[C@]1(C(=O)NCCc2c[nH]c3ccccc23)C=C[C@@H](Cc2ccccc2)N1C(=O)c1ccccc1`, the AC50 (A549) is reported as 20.6 µM (active).
For `COc1cccc(OCC(O)CN2CCN(c3ccccn3)CC2)c1` (stereo not drawn), the EC50 (Mu-type opioid receptor) was 92.4 µM (inactive) and the EC50 [3] was 1.46 µM (active).
In the case of `Oc1nc(SCc2nnc(S)n2-c2ccccc2)nc2sc3c(c12)CCC3`, the IC50 [4] is reported as 13.5 µM (active), the EC50 [5] is reported as > 53 µM (inactive) and the IC50 (Beta-lactamase [6]) is reported as > 59.6 µM (inactive). For the same compound, the IC50 (Beta-lactamase [7]) was > 59.6 µM (inactive), the IC50 (Beta-lactamase [8]) was > 59.6 µM (inactive) and the IC50 [9] was 6.63 µM (active).
For `COc1ccc(C(CNC(=O)c2cc(S(=O)(=O)N3CCCCC3)ccc2C)N2CCCC2)cc1` (stereo not drawn), the EC50 [10] was > 20 µM (inactive).
For `O=C(/C=C/c1ccc(Cl)cc1)NC(=S)Nc1ccc(C(=O)O)cc1`, the IC50 [11] was 15.4 µM (active), the IC50 [12] was 5.89 µM (active) and the IC50 [13] was 44.2 µM (inactive). For the same compound, the IC50 [14] was 5.4 µM (active) and the IC50 [15] was 9.21 µM (active).
